Source: the NIST ThermoML archive (doi:10.1016/j.fluid.2008.03.004)

Assay: xn = mol fraction of the nth substance listed
Conditions: 101 kPa, Liquid; for speed of sound: Sing-around technique in a fixed-path interferometer

CCOC(C)(C)C [2-ethoxy-2-methylpropane] + Cc1ccccc1C
Conditions	mass density [kg/m3]	speed of sound [m/s]
288.15 K, x1 = 0.055	875.654	1371.2
288.15 K, x1 = 0.098	870.017	1357.8
288.15 K, x1 = 0.201	855.684	1324.8
288.15 K, x1 = 0.307	840.866	1290.1
288.15 K, x1 = 0.4	827.772	1261.6
288.15 K, x1 = 0.502	813.516	1228.9
288.15 K, x1 = 0.601	800.311	1199
288.15 K, x1 = 0.661	791.943	1180.1
288.15 K, x1 = 0.803	772.557	1137.4
288.15 K, x1 = 0.895	759.896	1110.2
288.15 K, x1 = 0.947	752.872	1095
288.15 K, x1 = 1	744.955	1076.4
290.65 K, x1 = 0.055	873.542	1360.8
290.65 K, x1 = 0.098	867.884	1347.3
290.65 K, x1 = 0.201	853.503	1314.3
290.65 K, x1 = 0.307	838.637	1279.4
290.65 K, x1 = 0.4	825.503	1251
290.65 K, x1 = 0.502	811.198	1218.2
290.65 K, x1 = 0.601	797.952	1188.2
290.65 K, x1 = 0.661	789.556	1169.2
290.65 K, x1 = 0.803	770.105	1126.4
290.65 K, x1 = 0.895	757.404	1099.4
290.65 K, x1 = 0.947	750.354	1084.5
290.65 K, x1 = 1	742.482	1065.1
293.15 K, x1 = 0.055	871.419	1350.4
293.15 K, x1 = 0.098	865.74	1336.8
293.15 K, x1 = 0.201	851.313	1303.8
293.15 K, x1 = 0.307	836.397	1268.7
293.15 K, x1 = 0.4	823.223	1240.4
293.15 K, x1 = 0.502	808.871	1207.4
293.15 K, x1 = 0.601	795.578	1177.3
293.15 K, x1 = 0.661	787.156	1158.3
293.15 K, x1 = 0.803	767.641	1115.4
293.15 K, x1 = 0.895	754.895	1088.5
293.15 K, x1 = 0.947	747.821	1073.5
293.15 K, x1 = 1	739.947	1053.7
295.65 K, x1 = 0.055	869.295	1339.8
295.65 K, x1 = 0.098	863.594	1326.3
295.65 K, x1 = 0.201	849.119	1293.2
295.65 K, x1 = 0.307	834.156	1257.9
295.65 K, x1 = 0.4	820.937	1229.6
295.65 K, x1 = 0.502	806.537	1196.5
295.65 K, x1 = 0.601	793.199	1166.3
295.65 K, x1 = 0.661	784.75	1147.3
295.65 K, x1 = 0.803	765.167	1104.3
295.65 K, x1 = 0.895	752.377	1077.3
295.65 K, x1 = 0.947	745.278	1062.5
295.65 K, x1 = 1	737.374	1042.2
298.15 K, x1 = 0.055	867.167	1329.3
298.15 K, x1 = 0.098	861.446	1315.8
298.15 K, x1 = 0.201	846.922	1282.7
298.15 K, x1 = 0.307	831.91	1247.3
298.15 K, x1 = 0.4	818.651	1218.9
298.15 K, x1 = 0.502	804.2	1185.7
298.15 K, x1 = 0.601	790.817	1155.5
298.15 K, x1 = 0.661	782.341	1136.4
298.15 K, x1 = 0.803	762.689	1093.3
298.15 K, x1 = 0.895	749.853	1066.3
298.15 K, x1 = 0.947	742.726	1051.4
298.15 K, x1 = 1	734.806	1031
300.65 K, x1 = 0.055	865.039	1318.9
300.65 K, x1 = 0.098	859.296	1305.5
300.65 K, x1 = 0.201	844.725	1272.3
300.65 K, x1 = 0.307	829.661	1236.7
300.65 K, x1 = 0.4	816.36	1208.3
300.65 K, x1 = 0.502	801.859	1175
300.65 K, x1 = 0.601	788.431	1144.7
300.65 K, x1 = 0.661	779.923	1125.5
300.65 K, x1 = 0.803	760.203	1082.3
300.65 K, x1 = 0.895	747.321	1055.2
300.65 K, x1 = 0.947	740.169	1040.3
300.65 K, x1 = 1	732.225	1019.8
303.15 K, x1 = 0.055	862.904	1308.4
303.15 K, x1 = 0.098	857.143	1295.2
303.15 K, x1 = 0.201	842.523	1262
303.15 K, x1 = 0.307	827.409	1226.2
303.15 K, x1 = 0.4	814.064	1197.8
303.15 K, x1 = 0.502	799.512	1164.3
303.15 K, x1 = 0.601	786.037	1133.9
303.15 K, x1 = 0.661	777.502	1114.7
303.15 K, x1 = 0.803	757.711	1071.3
303.15 K, x1 = 0.895	744.78	1044.2
303.15 K, x1 = 0.947	737.602	1029.1
303.15 K, x1 = 1	729.647	1008.6
305.65 K, x1 = 0.055	–	1298
305.65 K, x1 = 0.098	–	1285
305.65 K, x1 = 0.201	–	1251.6
305.65 K, x1 = 0.307	–	1215.8
305.65 K, x1 = 0.4	–	1187.3
305.65 K, x1 = 0.502	–	1153.6
305.65 K, x1 = 0.601	–	1123.1
305.65 K, x1 = 0.661	–	1103.9
305.65 K, x1 = 0.803	–	1060.3
305.65 K, x1 = 0.895	–	1033.2
305.65 K, x1 = 0.947	–	1018
305.65 K, x1 = 1	–	997.52
